# In patent publication US6828462B2, “Unsaturated 1-amino-alkylcyclohexane NMDA, 5HT3, and neuronal nicotinic receptor antagonists” (Merz Pharma GmbH & Co. KGAA, priority 2001, dated 2004):
# Read-outs that look alike come from different tables or passages of the source.
# Legend:
# [1] = Accelerating rotarod test, ataxia (motor coordination); assay type: in vivo, mice; settings: mouse, in vivo, ip; NMR female mice, accelerating rotarod
# Procedure: (§1) NMR female mice (18-28 g) housed 5 per cage were used for the maximal electroshock (MES) and motor impairment tests. All animals were kept with water and food ad libitum under a 12 hour light-dark cycle (light on at 6 a.m.) and at a controlled temperature (20±0.5C). All experiments were performed between 10 a.m. and 5 p.m. Tested agents were injected 30 min. i.p. before the induction of convulsions if not stated otherwise (see below). All compounds were dissolved in 0.9% saline.
# (§2) The MES test was performed together with tests for myorelaxant action (traction reflex) and motor coordination (rotarod). For the traction reflex test mice were placed with their forepaws on a horizontal rod and were required to place all 4 paws on the wire within 10 seconds. To test ataxia (motor coordination) mice were placed on an accelerating rotarod and were required to remain on the rod for 1 minute. […] These tests were followed by MES (100 Hz, 0.5 second shock duration, 50 mA shock intensity, 0.9 ms impulse duration, Ugo Basile) applied through corneal electrodes. The presence of tonic convulsions was scored (tonic extension of hind paws with minimum angle to the body of 90). The aim was to obtain ED50s for all parameters scored (anticonvulsive activity and motor side effects) with use of the Litchfield Wilcoxon test for quantal dose responses. Division of the ED50 for side effects (ataxia or myorelaxation) by the ED50 for antagonism of electroshock convulsions was used as a therapeutic index (TI).
# (§3) 4-7 doses of antagonists were tested in each of the in vivo tests (5-8 animals per dose) to allow calculation of graded ED50s according to probit analysis (Litchfield and Wilcoxon) with correction for 0% to 100% effects. ED50s are presented with 95% confidence limits (Cl). Pearson product moment correlation analysis (Sigma Stat, Jandel Scientific) was used to compare in vitro potencies and in vivo anticonvulsant activity.
# [2] = target: T1, NMDA receptors (Rattus norvegicus, UniProt P35439); assay: Patch clamp, NMDA-induced currents in hippocampal neurones; assay type: cell-based; settings: Table 1; mean, N=6; read-out: NMDA IC50
# T1 construct: Patch clamp recordings were made from these neurones; endogenous in cells; host or cells: primary cultured hippocampal neurones from rat embryos (E20 to E21)
# [3] = system: maximal electroshock (MES) tonic convulsions; assay: Maximal electroshock (MES) test, anticonvulsive activity; assay type: in vivo, mice; settings: for ED50: Mus musculus, ip, read-out: MES ED50
# Procedure: as §1, §2, §3
# [4] = Traction reflex test, myorelaxant action; assay type: in vivo, mice; settings: mouse, in vivo, ip; NMR female mice, i.p., traction reflex; read-out: Myorelaxation ED50
# Procedure: as §1, §2, §3
# [5] = target: NMDA receptor ([3H]-(+)-MK-801 site) (Rattus norvegicus, UniProt P35439); assay: [3H]-(+)-MK-801 receptor binding, rat cortex membranes
# [6] = system: ataxia (rotarod); assay: Accelerating rotarod test, ataxia (motor coordination); assay type: in vivo, mice; settings: for Therapeutic index (ataxia ED50 / MES ED50): ED50 ataxia divided by ED50 MES
# Procedure: as §1, §2, §3
# [7] = system: myorelaxation (traction reflex); assay: Traction reflex test, myorelaxant action; assay type: in vivo, mice; settings: for Therapeutic index (myorelaxation ED50 / MES ED50): ED50 myorelaxation divided by ED50 MES
# Procedure: as §1, §2, §3
# [8] = NMR female mice, i.p. 30 min before convulsions
# [9] = read-out: [^3H]MK-801 Ki, rat cortex membranes, [3H]-(+)-MK-801 5 nM, glycine 10 μM, glutamate 10 μM, mean
Compound,ED50 at 30 min [1] [mg/kg],IC50 [2] [µM],"ED50 [3, 8] [mg/kg]",ED50 at 30 min [4] [mg/kg],Ki [5] [µM],Therapeutic index (ataxia ED50 / MES ED50) [6],Therapeutic index (myorelaxation ED50 / MES ED50) [7],"Ataxia ED50 ([6]; NMR female mice, i.p., accelerating rotarod)","MES ED50 [3, 8]","Myorelaxation ED50 ([7]; NMR female mice, i.p., traction reflex)","Ki [5, 9] [µM]",ED50 [3] [mg/kg]
"C=C[C@@]1(C)C[C@H](C)C[C@@](C)(N)C1 (relative stereo) [MRZ 2009, cis-3-Vinyl-1,3,trans-5-trimethylcyclohexylamine]",> 50,58.2,> 50,> 50,22.3,,,,,,,
"CC1=CC(C)(C)CC(C)(C)C1N.Cl (centres unmarked) [MRZ 2/657, 1-amino-2,4,4,6,6-pentamethyl-cyclohex-2-en Hydrochloride]",> 30,,> 30,> 30,13.4,,,,,,,
"CC(N)C1=CC(C)(C)CC(C)(C)C1 (centres unmarked) [MRZ 2/749, 1-(1-Aminoethyl)-3,3,5,5-tetramethylcyclohex-1-ene]",37.1,,26.6,38.6,10.8,1.4,1.5,,,,,
"CC1(C)C=C(N)CC(C)(C)C1 [MRZ 2/1005, 1-Amino-3,3,5,5-Tetramethyl-1-cyclohexene]",26.8,,20.5,35.7,13.6,1.3,1.7,,,,,
"CC1(C)CC(=CCN)CC(C)(C)C1 [MRZ 2/1021, 2-(3,3,5,5-Tetramethylcyclohexylidene)ethanamine]",23.1,0.33,29.5,16.5,2.15,0.8,0.6,,,,,
"CC1=CC(N)CC(C)(C)C1 (centres unmarked) [MRZ 2/1023, 1-Amino-3,3,5-trimethyl-2-cyclohexene]",,,,,,,,>50,>50,>50,49.6,
"CC1=CC(C)(N)CC(C)(C)C1 (centres unmarked) [MRZ 2002, 1,3,5,5-Tetramethyl-2-cyclohexen-1-amine]",53,,,34,5.7,2.0,1.3,,,,,26.1
"C=CCC1(N)CC(C)(C)CC(C)(C)C1 [MRZ 2005, 1-Allyl-3,3,5,5-tetramethylcyclohexanamine]",49.3,12.6,37.3,39.8,9.35,1.3,1.1,,,,,
"CC(N)C=C1CC(C)(C)CC(C)(C)C1 (centres unmarked) [MRZ 2006, 1-(3,3,5,5-Tetramethylcyclohexylidene)-2-propanamine]",40.9,,57,44.6,10.1,0.7,0.8,,,,,
"CCC1(CC)CC(=CC(C)N)CC(C)(C)C1 (centres unmarked) [MRZ 2008, 1-(3,3-Diethyl-5,5-dimethylcyclohexylidene)-2-propanamine]",,2.74,,,8.07,,,,,,,
"CC(C)(N)CC1=CC(C)(C)CC(C)(C)C1 [MRZ 2010, 2-Methyl-1-(3,3,5,5-tetramethyl-1-cyclohexen-1-yl)-2-propanamine]",> 50,,,> 50,44.9,,,,,,,> 50
"C=CCC1(N2CCCCC2)CC(C)(C)CC(C)(C)C1 [MRZ 2013, 1-(1-Allyl-3,3,5,5-tetramethylcyclohexyl)piperidine]",> 50,,,> 50,49.2,,,,,,,> 50
"C=CC1(CCN)CC(C)(C)CC(C)(C)C1 [MRZ 2014, 2-(1-Vinyl-3,3,5,5-tetramethylcyclohexyl-1)ethylamine]",25.8,0.1,47.8,13.9,3.12,0.5,0.3,,,,,
"CC(C)=CCC1(N2CCCCC2)CC(C)(C)CC(C)(C)C1 [MRZ 2015, 1-[3,3,5,5-Tetramethyl-1-(3-methyl-2-butenyl)cyclohexyl]piperidine]",> 50,,,> 50,83,,,,,,,> 50
"C#CCC1(N2CCCCC2)CC(C)(C)CC(C)(C)C1 [MRZ 2016, 1-[3,3,5,5-Tetramethyl-1-(2-propynyl)cyclohexyl]piperidine]",> 50,71.2,,> 50,42.2,,,,,,,> 50
"C=CCC(CN)C1(C)CC(C)(C)CC(C)(C)C1 (centres unmarked) [MRZ 2017, 2-(1,3,3,5,5-Pentamethylcyclohexyl)-4-pentenylamine]",33.7,1.19,36.9,35.6,6.79,0.9,1.0,,,,,
"CC(C)(N)C=C1CC(C)(C)CC(C)(C)C1 [MRZ 2019, 2-Methyl-1-(3,3,5,5-tetramethylcyclohexylidene)-2-propanamine]",> 50,,,> 50,73.1,,,,,,,> 50
"CC(CN)=C1CC(C)(C)CC(C)(C)C1 [MRZ 2020, 2-(3,3,5,5-Tetramethylcyclohexylidene)propanamine]",27.6,,26.1,34.5,7.45,1.1,1.3,,,,,
"C=CCNC1(C)CC(C)(C)CC(C)(C)C1 [MRZ 2026, N-Allyl-1,3,3,5,5-pentamethylcyclohexanamine]",37.6,29.6,25.4,26.7,,1.5,1.1,,,,,
"Neramexane Sulphate [MRZ 2000, reference compound]",,,,,,,,,,,1.68,
